Reference: article PMC5698726, “Allosteric Tuning of Caspase‐7: A Fragment‐Based Drug Discovery Approach” (Angewandte Chemie (International Ed. in English), 2017)

Columns and labels:
caspase-7 (C7) [1] = biological target: T1, caspase-7 (C7) (Homo sapiens, UniProt P55210); experiment: steady-state kinetics, Ac-DEVD-AFC cleavage; assay type: biochemical
T1 construct: gene CASP7; mature (processed, active) caspase-7, dimer, 6xHis tag; expression details only in supplement
T1 sequence (P55210 24-198): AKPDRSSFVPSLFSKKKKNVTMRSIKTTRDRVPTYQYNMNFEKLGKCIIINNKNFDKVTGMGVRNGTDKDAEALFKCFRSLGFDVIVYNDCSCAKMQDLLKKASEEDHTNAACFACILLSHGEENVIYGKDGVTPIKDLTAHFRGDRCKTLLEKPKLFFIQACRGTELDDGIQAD
T1 sequence (P55210 207-303): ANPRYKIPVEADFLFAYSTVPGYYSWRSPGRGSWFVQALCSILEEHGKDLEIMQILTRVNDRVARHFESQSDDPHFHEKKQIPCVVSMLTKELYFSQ

caspase-7 (C7) [2] = biological target: T1, caspase-7 (C7); experiment: fluorogenic Ac-DEVD-AFC cleavage assay; assay type: biochemical
caspase-7 (C7) [3] = biological target: T1, caspase-7 (C7); experiment: SPR OneStep injection, His-captured protein, […] fit; assay type: binding; details: read-out: Dissociation constant

Ki (caspase-7 (C7) [1])	IC50 (caspase-7 (C7) [2])	Kd (caspase-7 (C7) [3])	SMILES
0.667 ± 0.0319 mM	0.637 ± 0.00104 mM	–	O=C(O)Cc1ccccc1Sc1ccccc1 [compound 6, 6]
4.32 ± 0.194 mM	8.52 ± 0.0012 mM	4.09 ± 0.3 mM	O=C(O)C1c2ccccc2Oc2ccccc21 [compound 2, 2]
5.47 ± 0.398 mM	3.98 ± 0.00105 mM	8 ± 3 mM	CC(=O)c1ccccc1Sc1ccccc1C(=O)O [compound 1, 1]
